Where two headings read alike, the source gives them in different places.
Experiments:
CDK19/cyclin C = biological target: T1, CDK19/cyclin C (Homo sapiens, UniProt Q9BWU1); experiment: CDK enzymatic assay; type: biochemical; conditions: Fig. 1A
T1 construct: purchased Reaction Biology Corp
Protocol: (§1) CDK enzymatic assays were performed by Reaction Biology Corp. (Malvern, PA), using 10 µM ATP for determining MC180295 IC50 values for each CDK family member for which assays were available. Kinase enzymatic assays were also performed by Nanosyn (Santa Clara, CA), using microfluidic technology and MC180295 IC50 curves against 10 CDKs. Selectivity against CDK9 was confirmed for the enantiomers at Reaction Biology Corp. (Malvern, PA).

CDK6-Cyclin D3 = biological target: T2, CDK6-Cyclin D3 (Homo sapiens, UniProt Q00534); experiment: CDK enzymatic assay; type: biochemical; conditions: Fig. 1A
T2 construct: purchased Nanosyn
T2 sequence (Q00534 whole entry): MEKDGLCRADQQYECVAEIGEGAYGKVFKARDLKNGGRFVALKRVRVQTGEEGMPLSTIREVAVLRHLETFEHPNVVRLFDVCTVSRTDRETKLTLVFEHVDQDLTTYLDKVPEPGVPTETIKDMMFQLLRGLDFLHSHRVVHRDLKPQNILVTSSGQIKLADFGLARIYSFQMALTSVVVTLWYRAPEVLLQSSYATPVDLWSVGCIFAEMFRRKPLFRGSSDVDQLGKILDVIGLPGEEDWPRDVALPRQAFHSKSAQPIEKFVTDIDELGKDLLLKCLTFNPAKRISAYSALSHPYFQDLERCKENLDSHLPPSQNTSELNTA
T2 sequence (P30281 whole entry partner): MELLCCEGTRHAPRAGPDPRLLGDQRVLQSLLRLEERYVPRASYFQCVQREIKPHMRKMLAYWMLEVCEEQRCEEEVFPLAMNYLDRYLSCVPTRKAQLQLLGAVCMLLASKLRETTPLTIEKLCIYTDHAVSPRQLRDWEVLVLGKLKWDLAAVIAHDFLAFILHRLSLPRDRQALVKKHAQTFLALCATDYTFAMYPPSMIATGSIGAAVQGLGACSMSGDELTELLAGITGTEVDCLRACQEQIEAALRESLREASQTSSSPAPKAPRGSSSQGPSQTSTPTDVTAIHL
Protocol: as §1

CDK18/cyclin Y (PCTK3) = biological target: T3, CDK18/cyclin Y (PCTK3) (Homo sapiens, UniProt Q07002); experiment: CDK enzymatic assay; type: biochemical; conditions: Fig. 1A
T3 construct: purchased Reaction Biology Corp
T3 sequence (Q07002 whole entry): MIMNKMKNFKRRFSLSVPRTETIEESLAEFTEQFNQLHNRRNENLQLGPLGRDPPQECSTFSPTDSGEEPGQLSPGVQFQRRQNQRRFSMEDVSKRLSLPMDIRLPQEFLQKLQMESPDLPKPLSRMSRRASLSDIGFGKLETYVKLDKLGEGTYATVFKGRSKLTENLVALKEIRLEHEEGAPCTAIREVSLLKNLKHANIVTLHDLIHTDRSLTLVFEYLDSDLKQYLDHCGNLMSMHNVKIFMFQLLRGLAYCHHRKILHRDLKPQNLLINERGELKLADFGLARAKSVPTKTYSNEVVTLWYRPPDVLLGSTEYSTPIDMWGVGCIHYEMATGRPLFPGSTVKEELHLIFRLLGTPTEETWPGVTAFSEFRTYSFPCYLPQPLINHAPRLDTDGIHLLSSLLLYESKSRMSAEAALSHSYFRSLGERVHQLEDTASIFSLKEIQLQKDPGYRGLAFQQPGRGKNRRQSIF
T3 sequence (Q8ND76 whole entry partner): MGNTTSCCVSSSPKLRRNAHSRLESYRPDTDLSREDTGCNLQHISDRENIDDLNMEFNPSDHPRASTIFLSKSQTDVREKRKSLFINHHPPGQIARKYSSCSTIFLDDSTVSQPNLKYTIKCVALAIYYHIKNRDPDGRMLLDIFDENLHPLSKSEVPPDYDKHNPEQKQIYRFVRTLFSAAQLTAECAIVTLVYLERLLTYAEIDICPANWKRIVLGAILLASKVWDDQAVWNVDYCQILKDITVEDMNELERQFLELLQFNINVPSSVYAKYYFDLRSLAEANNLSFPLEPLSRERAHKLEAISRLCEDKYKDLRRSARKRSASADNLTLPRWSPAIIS
Protocol: as §1

CDK9/cyclin T1 = CDK9/cyclin T1 (Homo sapiens, UniProt P50750); experiment: CDK enzymatic assay; type: biochemical; conditions: Fig. 1A
Sequence of CDK9/cyclin T1 (P50750 whole entry): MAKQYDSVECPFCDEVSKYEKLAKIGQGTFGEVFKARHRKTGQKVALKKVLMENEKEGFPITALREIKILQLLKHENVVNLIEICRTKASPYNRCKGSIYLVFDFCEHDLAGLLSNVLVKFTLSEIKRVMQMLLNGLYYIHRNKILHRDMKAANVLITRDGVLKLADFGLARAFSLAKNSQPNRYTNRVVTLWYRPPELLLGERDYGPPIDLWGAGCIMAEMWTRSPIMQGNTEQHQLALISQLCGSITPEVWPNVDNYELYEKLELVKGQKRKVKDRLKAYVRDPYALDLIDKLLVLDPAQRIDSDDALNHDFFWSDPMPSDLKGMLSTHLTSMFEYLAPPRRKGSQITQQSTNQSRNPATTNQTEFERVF
Sequence of CDK9/cyclin T1 (O60563 whole entry partner): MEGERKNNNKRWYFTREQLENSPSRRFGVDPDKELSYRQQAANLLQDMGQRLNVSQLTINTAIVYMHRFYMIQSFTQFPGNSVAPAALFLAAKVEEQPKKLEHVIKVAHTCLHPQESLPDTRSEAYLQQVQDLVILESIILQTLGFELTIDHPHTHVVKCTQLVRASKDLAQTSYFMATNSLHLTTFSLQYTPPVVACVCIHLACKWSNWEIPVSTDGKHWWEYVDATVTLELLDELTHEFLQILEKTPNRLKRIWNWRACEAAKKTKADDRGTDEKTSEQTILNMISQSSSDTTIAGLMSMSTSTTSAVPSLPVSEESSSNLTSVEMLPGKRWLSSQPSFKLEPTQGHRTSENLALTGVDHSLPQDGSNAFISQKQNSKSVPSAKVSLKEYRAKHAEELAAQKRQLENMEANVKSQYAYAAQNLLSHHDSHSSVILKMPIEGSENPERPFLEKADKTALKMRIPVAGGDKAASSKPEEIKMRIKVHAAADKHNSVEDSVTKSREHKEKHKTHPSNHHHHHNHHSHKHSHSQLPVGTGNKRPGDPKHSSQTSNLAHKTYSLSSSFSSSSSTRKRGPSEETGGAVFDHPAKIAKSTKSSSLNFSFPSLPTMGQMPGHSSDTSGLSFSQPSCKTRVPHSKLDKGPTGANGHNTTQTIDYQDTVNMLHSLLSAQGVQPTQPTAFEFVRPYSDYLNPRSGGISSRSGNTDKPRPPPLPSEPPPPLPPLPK
Protocol: as §1

CDK14/cyclin Y (PFTK1) = biological target: T4, CDK14/cyclin Y (PFTK1) (Homo sapiens, UniProt O94921); experiment: CDK enzymatic assay; type: biochemical; conditions: Fig. 1A
T4 construct: purchased Reaction Biology Corp
T4 sequence (O94921 whole entry): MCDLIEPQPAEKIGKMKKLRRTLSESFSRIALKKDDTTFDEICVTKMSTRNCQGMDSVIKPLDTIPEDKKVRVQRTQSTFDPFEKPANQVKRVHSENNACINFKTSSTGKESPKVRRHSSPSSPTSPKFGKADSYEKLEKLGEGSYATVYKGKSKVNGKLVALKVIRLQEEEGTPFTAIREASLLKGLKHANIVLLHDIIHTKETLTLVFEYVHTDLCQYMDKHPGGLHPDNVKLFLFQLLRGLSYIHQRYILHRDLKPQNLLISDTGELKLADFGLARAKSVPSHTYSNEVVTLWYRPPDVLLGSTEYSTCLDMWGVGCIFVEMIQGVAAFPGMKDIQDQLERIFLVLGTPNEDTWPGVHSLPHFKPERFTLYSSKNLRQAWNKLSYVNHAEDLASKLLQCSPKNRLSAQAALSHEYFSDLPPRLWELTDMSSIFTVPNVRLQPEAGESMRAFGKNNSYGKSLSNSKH
T4 sequence (Q8ND76 whole entry partner): as the sequence (Q8ND76 whole entry partner) above
Protocol: as §1

CT26.CL25 cells = experiment: CT26.CL25 colon cancer model in B6 mice with/without CD8 depletion; type: in vivo; conditions: CT26.CL25 s.c. in B6 mice, MC180295 20 mg/kg i.p. q.o.d., DAC 0.5 mg/kg i.p. daily
Protocol: Fig. 5 Survival and antitumor effects of MC180295, DAC, or their combination, with/without CD8 + T cells. A 20 mg/kg MC180295 was administered (i.p.) q.o.d. 0.5 mg/kg DAC was administered (i.p.) daily. Mouse survival in days. B Survival of B6 mice, after CD8 depletion, using an anti-CD8 antibody. 20 mg/kg MC180295 was administered (i.p.) q.o.d. 0.5 mg/kg DAC was administered (i.p.) daily. C Antitumor effects of MC180295 with and without CD8 depletion, using an anti-CD8 antibody. B6 mice were inoculated (s.c.) with 5 × 10^5 CT26.CL25 cells. Eight days later, when tumors were palpable, 20 mg/kg MC180295 was administered (i.p.) q.o.d. 0.5 mg/kg DAC was administered (i.p.) daily. Tumor sizes were measured using a caliper and calculated over vehicle. D Antitumor effects of DAC, with and without CD8 depletion, using an anti-CD8 antibody. B6 mice were inoculated (s.c.) with 5 × 10^5 CT26.CL25 cells. Eight days later, when tumors were palpable, 20 mg/kg MC180295 was administered (i.p.) q.o.d. 0.5 mg/kg DAC was administered (i.p.) daily. Tumor sizes were measured using a caliper and calculated over vehicle. E Antitumor effects of DAC + MC180295, with and without CD8 depletion, using an anti-CD8 antibody. B6 mice were inoculated (s.c.) with 5 × 10^5 CT26.CL25 cells. Eight days later, when tumors were palpable, 20 mg/kg MC180295 was administered (i.p.) q.o.d. 0.5 mg/kg DAC was administered (i.p.) daily. Tumor sizes were measured using a caliper and calculated over vehicle. Significances were calculated using log-rank (Mantel-Cox) or Student's T tests. Data shown as means ± SEMs
For the s.c. SW48 model, 2 × 10^6 cells were injected into the flanks of randomly assigned, gender-matched 8–10-week-old NSG mice. 20 mg/kg MC180379, MC180380, or MC180295 was injected (i.p.), every other day, when the tumors were palpable, 11 days after engraftment, until endpoints were met. Mice were sacrificed before tumor volumes exceeded 400 mm^2 (endpoint for this model). For the s.c. HT29 model, 2 × 10^6 cells were injected into the flanks of randomly assigned, gender-matched, 8–10-week-old NSG mice. […]

Pharmacokinetics in rats = type: in vivo; conditions: rat, plasma, iv, 1 mg/kg; for AUC(0-t): read-out: AUC24hr; for Vd: read-out: Vss

T1 sequence (Q9BWU1 whole entry): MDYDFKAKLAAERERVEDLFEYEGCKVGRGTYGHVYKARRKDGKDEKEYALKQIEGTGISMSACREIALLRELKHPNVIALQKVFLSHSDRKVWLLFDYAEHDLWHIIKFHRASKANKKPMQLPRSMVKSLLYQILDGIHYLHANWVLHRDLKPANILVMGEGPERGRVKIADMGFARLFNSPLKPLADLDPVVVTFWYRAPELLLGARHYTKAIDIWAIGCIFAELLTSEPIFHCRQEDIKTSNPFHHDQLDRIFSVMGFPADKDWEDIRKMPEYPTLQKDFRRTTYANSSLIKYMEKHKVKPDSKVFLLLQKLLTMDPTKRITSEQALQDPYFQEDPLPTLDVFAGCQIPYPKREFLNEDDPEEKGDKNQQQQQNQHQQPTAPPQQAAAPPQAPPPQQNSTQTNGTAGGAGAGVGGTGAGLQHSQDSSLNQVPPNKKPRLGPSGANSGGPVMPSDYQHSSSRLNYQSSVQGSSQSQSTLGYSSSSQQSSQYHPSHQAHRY
T1 sequence (P24863 whole entry partner): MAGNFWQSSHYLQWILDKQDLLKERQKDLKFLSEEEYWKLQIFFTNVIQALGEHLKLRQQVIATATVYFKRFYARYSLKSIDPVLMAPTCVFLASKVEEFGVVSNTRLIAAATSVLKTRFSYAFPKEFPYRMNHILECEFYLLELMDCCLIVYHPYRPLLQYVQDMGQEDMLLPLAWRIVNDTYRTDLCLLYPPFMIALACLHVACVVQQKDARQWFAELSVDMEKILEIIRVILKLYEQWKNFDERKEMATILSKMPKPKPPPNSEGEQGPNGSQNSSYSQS

Work on `Nc1nc(N[C@H]2C[C@@H]3CC[C@H]2C3)sc1C(=O)c1ccccc1[N+](=O)[O-]` (relative stereo) [MC180295] yielded an IC50 (CDK19/cyclin C) of 814 nM, an IC50 (CDK6-Cyclin D3) of 712 nM and an IC50 (CDK18/cyclin Y (PCTK3)) of 1060 nM. For the same compound, the IC50 (CDK9/cyclin T1) was 12 nM, the IC50 (CDK14/cyclin Y (PFTK1)) was 528 nM and the survival (CT26.CL25 cells) was “extended survival”. For the same compound, the tumor size (CT26.CL25 cells) was “significantly decreased tumor size”, the half-life (Pharmacokinetics in rats; given IV to rats, read-out: half-life (converted)) was roughly 840 min and the Cmax (Pharmacokinetics in rats; rats, IV 1 mg/kg, Mean) was 635 ng/mL. It also gave a clearance (Pharmacokinetics in rats; rats, IV 1 mg/kg, Mean) of 5.2 mL/min, an AUC(0-t) (Pharmacokinetics in rats; rats, IV 1 mg/kg, Mean) of 679 ng·h/mL and a half-life (Pharmacokinetics in rats; rats, IV 1 mg/kg, Mean, read-out: T1/2 (converted)) of 838 min. The Vd (Pharmacokinetics in rats; rats, IV 1 mg/kg, Mean) was 4.46 L, the Cmax (Pharmacokinetics in rats; rats, IV 1 mg/kg, Rat -1) was 385 ng/mL and the clearance (Pharmacokinetics in rats; rats, IV 1 mg/kg, Rat -1) was 6.4 mL/min. For the same compound, the AUC(0-t) (Pharmacokinetics in rats; rats, IV 1 mg/kg, Rat -1) was 470 ng·h/mL, the half-life (Pharmacokinetics in rats; rats, IV 1 mg/kg, Rat -1, read-out: T1/2 (converted)) was 1070 min and the Vd (Pharmacokinetics in rats; rats, IV 1 mg/kg, Rat -1) was 6.87 L. For the same compound, the Cmax (Pharmacokinetics in rats; rats, IV 1 mg/kg, Rat -2) was 568 ng/mL, the clearance (Pharmacokinetics in rats; rats, IV 1 mg/kg, Rat -2) was 5.1 mL/min and the AUC(0-t) (Pharmacokinetics in rats; rats, IV 1 mg/kg, Rat -2) was 687 ng·h/mL. The half-life (Pharmacokinetics in rats; rats, IV 1 mg/kg, Rat -2, read-out: T1/2 (converted)) was 599 min, the Vd (Pharmacokinetics in rats; rats, IV 1 mg/kg, Rat -2) was 3.74 L and the Cmax (Pharmacokinetics in rats; rats, IV 1 mg/kg, Rat -3) was 951 ng/mL. The clearance (Pharmacokinetics in rats; rats, IV 1 mg/kg, Rat -3) was 4.1 mL/min, the AUC(0-t) (Pharmacokinetics in rats; rats, IV 1 mg/kg, Rat -3) was 879 ng·h/mL and the half-life (Pharmacokinetics in rats; rats, IV 1 mg/kg, Rat -3, read-out: T1/2 (converted)) was 840 min. It also gave a Vd (Pharmacokinetics in rats; rats, IV 1 mg/kg, Rat -3) of 2.76 L.
